Test results as given in ChEMBL document CHEMBL3616403, “Probing a 3,4'-bis-guanidinium diaryl derivative as an allosteric inhibitor of the Ras pathway” (Bioorg Med Chem Lett, 2015).
Each block holds one compound with its values, some of them ahead of it. Activity calls are given as the source filed them. No cut-off for these calls is given here.

What was measured:
[1] = Cytotoxicity against human F-6-8 cells expressing B-Raf V600E mutant assessed as cell viability after 72 hrs by MTT assay; format: functional, cell-based
[2] = Cytotoxicity against human T29 cells expressing wild type B-Raf assessed as cell viability after 72 hrs by MTT assay; format: functional, cell-based; conditions: T29, 72 h
[3] = Cell cycle arrest in human T29 cells assessed as increase in cell level at pre-G1 phase at 5 uM after 48 hrs by propidium iodide staining-based flow cytometric analysis; format: functional
[4] = test system: T29; test: Cytotoxicity against human T29 cells assessed as increase in membrane blebbing at 10 uM after 24 hrs by inverted microscopic analysis; format: functional, cell-based
[5] = Cell cycle arrest in human T29 cells assessed as increase in cell level at pre-G1 phase at 10 uM after 72 hrs by propidium iodide staining-based flow cytometric analysis; format: functional
[6] = Cell cycle arrest in human T29 cells assessed as decrease in cell level at G2/M phase at 5 to 10 uM after 48 to 72 hrs by propidium iodide staining-based flow cytometric analysis; format: functional
[7] = biological target: Epidermal growth factor receptor (Homo sapiens) (UniProt P00533); test: Inhibition of EGFR in human T29 cells assessed as suppression of AKT phosphorylation at mTORC2 site, Ser473 after 24 hrs by Western blot analysis; format: cell-based
Sequence of Epidermal growth factor receptor (Homo sapiens) (P00533 whole entry): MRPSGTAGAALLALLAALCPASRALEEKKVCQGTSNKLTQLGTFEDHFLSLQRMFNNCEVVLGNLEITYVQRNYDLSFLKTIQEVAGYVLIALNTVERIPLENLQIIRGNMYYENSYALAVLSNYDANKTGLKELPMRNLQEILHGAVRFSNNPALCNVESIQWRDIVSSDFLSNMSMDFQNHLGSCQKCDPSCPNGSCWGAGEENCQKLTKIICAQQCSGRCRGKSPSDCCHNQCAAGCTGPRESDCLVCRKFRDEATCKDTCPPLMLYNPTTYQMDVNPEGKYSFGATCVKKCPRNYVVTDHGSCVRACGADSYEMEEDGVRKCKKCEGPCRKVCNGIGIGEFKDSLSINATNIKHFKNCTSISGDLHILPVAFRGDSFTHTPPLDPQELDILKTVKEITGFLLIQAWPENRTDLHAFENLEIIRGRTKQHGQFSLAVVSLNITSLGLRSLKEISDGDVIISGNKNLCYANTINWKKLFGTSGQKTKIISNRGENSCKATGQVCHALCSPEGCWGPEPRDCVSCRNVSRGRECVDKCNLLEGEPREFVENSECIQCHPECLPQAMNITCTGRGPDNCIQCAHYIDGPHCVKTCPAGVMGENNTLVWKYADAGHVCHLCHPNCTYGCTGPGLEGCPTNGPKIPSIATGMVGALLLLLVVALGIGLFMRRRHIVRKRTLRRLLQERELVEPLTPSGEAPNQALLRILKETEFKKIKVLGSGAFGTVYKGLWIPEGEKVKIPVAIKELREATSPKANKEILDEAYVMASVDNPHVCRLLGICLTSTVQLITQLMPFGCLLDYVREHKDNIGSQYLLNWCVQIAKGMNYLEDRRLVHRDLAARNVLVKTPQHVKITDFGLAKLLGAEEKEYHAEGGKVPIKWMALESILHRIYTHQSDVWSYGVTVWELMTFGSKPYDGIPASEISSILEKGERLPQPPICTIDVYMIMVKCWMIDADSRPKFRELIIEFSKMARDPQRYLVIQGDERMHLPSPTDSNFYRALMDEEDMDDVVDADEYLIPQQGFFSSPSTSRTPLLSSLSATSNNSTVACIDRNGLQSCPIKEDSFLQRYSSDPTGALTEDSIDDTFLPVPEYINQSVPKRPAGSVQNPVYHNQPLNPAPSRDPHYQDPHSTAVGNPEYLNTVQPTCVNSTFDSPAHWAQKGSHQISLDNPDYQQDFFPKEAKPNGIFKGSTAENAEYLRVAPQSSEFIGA

[8] = biological target: Epidermal growth factor receptor (Homo sapiens) (UniProt P00533); test: Inhibition of EGFR in human T29 cells assessed as suppression of C-Raf phosphorylation at p-21-activated protein kinase site, Ser338 after 24 hrs by Western blot analysis; format: cell-based
[9] = Cell cycle arrest in human T29 cells assessed as decrease in cell level at G0/G1 phase at 5 to 10 uM after 48 to 72 hrs by propidium iodide staining-based flow cytometric analysis; format: functional
[10] = test system: T29; test: Cytotoxicity against human T29 cells assessed as increase in cell shrinkage at 10 uM after 24 hrs by inverted microscopic analysis; format: functional, cell-based
[11] = biological target: Epidermal growth factor receptor (Homo sapiens) (UniProt P00533); test: Inhibition EGFR in human T29 cells assessed as suppression of STAT3 phosphorylation at Tyr705 after 24 hrs by Western blot analysis; format: cell-based
[12] = test system: T29; test: Induction of apoptosis in human T29 cells assessed as PARP cleavage at 10 uM after 24 hrs by Western blot analysis; format: functional, cell-based
[13] = test system: T29; test: Cytotoxicity against human T29 cells assessed as cell detachment from culture dish at 10 uM after 24 hrs by inverted microscopic analysis; format: functional, cell-based
[14] = test system: T29; test: Cytotoxicity against human T29 cells assessed as increase in nuclear fragmentation at 10 uM after 24 hrs by inverted microscopic analysis; format: functional, cell-based
[15] = biological target: Serine/threonine-protein kinase B-raf (Homo sapiens) (UniProt P15056); test: Inhibition of recombinant B-Raf (unknown origin) expressed in HEK293 cells using MEK1 peptide as substrate at 20 uM after 15 mins by radiometric assay in presence of [gamma-32P]ATP
Sequence of Serine/threonine-protein kinase B-raf (Homo sapiens) (P15056 whole entry): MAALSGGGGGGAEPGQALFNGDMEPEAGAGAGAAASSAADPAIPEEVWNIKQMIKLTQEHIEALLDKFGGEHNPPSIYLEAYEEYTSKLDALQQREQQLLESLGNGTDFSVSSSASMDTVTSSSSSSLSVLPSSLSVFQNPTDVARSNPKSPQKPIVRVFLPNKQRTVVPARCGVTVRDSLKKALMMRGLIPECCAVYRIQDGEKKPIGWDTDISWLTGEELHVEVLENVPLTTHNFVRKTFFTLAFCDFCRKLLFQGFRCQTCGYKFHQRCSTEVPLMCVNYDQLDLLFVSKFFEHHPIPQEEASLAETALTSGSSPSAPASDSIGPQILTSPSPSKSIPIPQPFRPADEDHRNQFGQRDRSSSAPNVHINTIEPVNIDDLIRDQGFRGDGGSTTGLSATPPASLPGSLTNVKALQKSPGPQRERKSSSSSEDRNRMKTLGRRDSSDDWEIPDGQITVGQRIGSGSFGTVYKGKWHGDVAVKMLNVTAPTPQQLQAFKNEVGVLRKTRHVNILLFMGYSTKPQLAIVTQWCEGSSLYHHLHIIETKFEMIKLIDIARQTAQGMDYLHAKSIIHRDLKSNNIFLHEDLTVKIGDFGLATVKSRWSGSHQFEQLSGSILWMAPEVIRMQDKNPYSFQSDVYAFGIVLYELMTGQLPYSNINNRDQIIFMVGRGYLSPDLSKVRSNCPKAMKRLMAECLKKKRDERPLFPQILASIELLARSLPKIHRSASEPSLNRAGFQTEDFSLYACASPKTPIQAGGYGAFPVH

[16] = biological target: Epidermal growth factor receptor (Homo sapiens) (UniProt P00533); test: Inhibition of EGFR in human T29 cells assessed as suppression of ERK phosphorylation at Tyr204 after 24 hrs by Western blot analysis; format: cell-based
[17] = biological target: Epidermal growth factor receptor (Homo sapiens) (UniProt P00533); test: Inhibition of EGFR in human T29 cells assessed as suppression of MEK phosphorylation at Ser217/Ser221 after 24 hrs by Western blot analysis; format: cell-based
[18] = biological target: Epidermal growth factor receptor (Homo sapiens) (UniProt P00533); test: Inhibition of EGFR in human T29 cells assessed as suppression of Src phosphorylation at Tyr416 after 24 hrs by Western blot analysis; format: cell-based
[19] = biological target: Serine/threonine-protein kinase B-raf (Homo sapiens) (UniProt P15056); test: Competitive inhibition of recombinant B-Raf (unknown origin) expressed in HEK293 cells up to 100 uM after 60 to 120 mins by FRET analysis in presence of ATP; format: cell-based
[20] = Cell cycle arrest in human T29 cells assessed as decrease in cell level at S phase at 5 to 10 uM after 48 to 72 hrs by propidium iodide staining-based flow cytometric analysis; format: functional
[21] = biological target: Epidermal growth factor receptor (Homo sapiens) (UniProt P00533); test: Inhibition of EGFR autophosphorylation at Tyr1068 in human T29 cells after 24 hrs by Western blot analysis; format: cell-based
[22] = Cell cycle arrest in human T29 cells assessed as increase in cell level at pre-G1 phase at 10 uM after 48 hrs by propidium iodide staining-based flow cytometric analysis; format: functional
[23] = Selectivity ratio of IC50 for human F-6-8 cells expressing B-Raf V600E mutant to IC50 for human T29 cells expressing wild type B-Raf; format: functional
[24] = Cell cycle arrest in human T29 cells assessed as increase in cell level at pre-G1 phase at 5 uM after 72 hrs by propidium iodide staining-based flow cytometric analysis; format: functional

SMILES: N=C(N)Nc1ccc(Oc2cccc(NC(=N)N)c2)cc1
- IC50 [1]: 9.8 µM
- IC50 [2]: 6.5 µM

SMILES: CNC(=O)c1cc(Oc2ccc(NC(=O)Nc3ccc(Cl)c(C(F)(F)F)c3)cc2)ccn1 [SORAFENIB]
- IC50 [1]: 1.3 µM
- IC50 [2]: 0.9 µM

SMILES: N=C(N)Nc1cccc(Cc2ccc(NC(=N)Nc3ccc(Cl)c(C(F)(F)F)c3)cc2)c1
- IC50 [1]: 7.6 µM
- IC50 [2]: 4.5 µM

- inhibition [7]: Dose-dependent effect
- inhibition [8]: Dose-dependent effect
- inhibition [11]: Dose-dependent effect
- inhibition [15]: Active
- inhibition [16]: Dose-dependent effect
- inhibition [17]: Dose-dependent effect
- inhibition [18]: Dose-dependent effect
- inhibition [19]: inactive
- inhibition [21]: Dose-dependent effect
SMILES: N=C(N)Nc1ccc(Oc2cccc(NC(=N)Nc3ccc(Cl)c(C(F)(F)F)c3)c2)cc1
- IC50 [1]: 2.6 µM
- Activity [3]: 8.5%
- Activity [4]: Active
- Activity [5]: 38.7%
- Activity [6]: Active
- Activity [9]: Active
- Activity [10]: Active
- Activity [12]: Active
- Activity [13]: Active
- Activity [14]: Active
- IC50 [2]: 0.9 µM
- Activity [20]: Active
- Activity [22]: 20.7%
- Ratio IC50 [23]: 2
- Activity [24]: 22.5%

SMILES: CC(=O)Nc1cccc(Nc2ccc(NC(=N)Nc3ccc(Cl)c(C(F)(F)F)c3)cc2)c1
- IC50 [1]: 6.6 µM
- IC50 [2]: 4.1 µM
